Measurements published in PubChem BioAssay AID588617 (The Scripps Research Institute Molecular Screening Center, 2011).

Molecular target: Krueppel-like factor 5 (Homo sapiens) (UniProt Q13887)
Assay: change in KLF5 protein levels, late-stage follow-up, counter-screen for KLF5 inhibitor project, western blot, chemiluminescence, DLD-1 cells (AID 588617)
Conditions: 24 h, at 10 µM, active compounds read high

Sequence of Krueppel-like factor 5 (Homo sapiens) (Q13887 whole entry, looked up): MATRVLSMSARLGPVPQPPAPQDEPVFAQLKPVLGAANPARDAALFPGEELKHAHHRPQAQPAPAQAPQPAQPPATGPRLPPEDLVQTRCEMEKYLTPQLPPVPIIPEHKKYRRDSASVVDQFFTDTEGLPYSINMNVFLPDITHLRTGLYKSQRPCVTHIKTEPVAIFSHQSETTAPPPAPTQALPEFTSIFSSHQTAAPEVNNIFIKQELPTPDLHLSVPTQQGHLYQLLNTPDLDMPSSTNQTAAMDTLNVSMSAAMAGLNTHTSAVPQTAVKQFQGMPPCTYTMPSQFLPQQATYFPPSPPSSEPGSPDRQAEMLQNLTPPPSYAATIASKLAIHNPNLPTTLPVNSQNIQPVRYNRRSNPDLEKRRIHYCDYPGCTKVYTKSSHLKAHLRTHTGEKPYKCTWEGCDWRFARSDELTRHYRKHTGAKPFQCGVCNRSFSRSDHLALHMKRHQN

inhibition: 30.1%
SMILES: CN(C(=O)COC(=O)/C=C/c1cccc([N+](=O)[O-])c1)C1CCS(=O)(=O)C1 (stereo unspecified)
